Data: publication PMC6278385, “Preclinical Pharmacokinetics of C118P, a Novel Prodrug of Microtubules Inhibitor and Its Metabolite C118 in Mice, Rats, and Dogs” (Molecules, 2018)
Read-outs that look alike come from different tables or passages of the source. Values belong to the molecule of their own block, whether it stands above or below them.

Assays:
[1] = Plasma protein binding by ultrafiltration; type: in vitro ADME, Sprague-Dawley rats; conditions: Sprague-Dawley, rat plasma, read-out: fu (fraction unbound);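 also: fu expressed in percent not as a fraction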
Procedure: Both C118P and C118 were stable in the plasma with EDTA as anticoagulant. The non-specific binding to the ultrafilter membrane was negligible. The extent of plasma protein binding was reported as a fraction unbound (fu, %) value which was calculated using the formula fu = PF/TC × 100%, where TC is test compound (C118P or C118) concentration in sample before ultrafiltration, and PF is the test compound concentration in the ultrafiltrate (Table 1).
Plasma protein binding of C118P and C118 were determined by ultrafiltration at four concentrations (C118P: 400, 4000, 40,000, and 400,000 ng/mL, C118: 20, 200, 2000, and 20,000 ng/mL) in pooled plasma from Sprague-Dawley rats, beagle dogs, and humans. Stock solutions of C118P and C118 dissolved in methanol were diluted with blank plasma to achieve the test concentrations (the methanol volume is less than 10% of the plasma). The plasma was incubated for 1 h in a water bath at 37 °C. The total concentration of C118P and C118 of spiked plasma (TC) was analyzed by previously described methods. Ultrafiltration was performed with activated high speed centrifugal tubes (Millipore, Burlington, MA, USA). Plasma samples (0.4 mL) were added to the upper layer of the high speed centrifugal tubes, and then centrifuged at 12,000 g for 10 min. The concentration of unbound C118P and C118 in filtrate (PF) was similarly determined by the previously described methods. The percentage of free fraction (fu) of C118P and C118 was calculated as follows: fu = (PF/TC) × 100%.

Whole blood/plasma ratio = type: in vitro ADME; conditions: in rat, incubation 30 min
Procedure: The ratio of C118P and C118 in blood and plasma was studied. The whole blood was obtained from healthy volunteer and was separated into two parts to obtain whole blood and plasma. Standard solution was added into whole blood and plasma to mimic the incurred sample. After incubation for 30 min, the whole blood was separated into two parts. One was frozen and thawed to obtain the homogenous whole blood and the other sample was centrifuged to obtain plasma. The samples were analyzed by the established LC-MS/MS method and the blood plasma ratio was calculated.

[2] = Metabolic stability in liver microsomes; type: in vitro ADME, rat
Procedure: (§1) The in vitro metabolic stability of C118P and C118 were estimated in mice, rat, dog, monkey, and human liver microsomes (Research Institute for Liver Diseases Co. Ltd (Shanghai, China)). The incubation mixture contains C118P or C118, NADP (1.0 mM), G-6-P (10 mM), PDH (2 units/mL), MgCl2 (10 mM), and liver microsomes (mice, rats, dogs, monkeys, or humans, 1.0 mg protein/mL) in phosphate buffer. A total of 200 μL of the mixture was removed and quenched with 600 μL acetonitrile in an ice bath at 0, 15, 30, 60, 120, and 240 min after the addition of NADPH.
(§2) CLint, in vitro (the in vitro intrinsic clearance, Equation (1)) was calculated from the t1/2 of C118 disappearance, where Cprotein is the protein concentration during the incubation, and t1/2 was determined by the slope (k) of the log-linear regression analysis of the concentration versus time profiles; thus, t1/2 = ln2/k. […] The in vivo hepatic clearance (CLH, Equation (3)) was then calculated by using CLint and hepatic blood flow, Q ([…] mL·min^−1·kg^−1 in rats, dogs, monkey, and humans, respectively), in the well-stirred liver model disregarding all binding. The hepatic extraction ratio was calculated as CLH divided by Q. CLint, in vitro = (0.693/t1/2) × (1/Cprotein)(1) CLint = CLint, in vitro × (mg protein/g liver weight) × (gliver weight/kg body weight)(2) CLH = (Q × CLint)/(Q + CLint)(3)

[3] = Metabolic stability in liver microsomes; type: in vitro ADME, monkey
Procedure: as §1, §2

[4] = PK in dogs after i.v. C118P; type: in vivo, beagle dogs; conditions: plasma; for AUC(0-inf) / half-life / clearance / concentration at 2 min: both sexes, beagle, dog; for AUC(0-inf) / half-life / clearance: iv; for concentration at 2 min: read-out: C2min
Procedure: The beagle dogs were purchased from Nanjing Ya Dong experimental animal research center. Twelve beagle dogs with half males and half females were divided randomly into two groups. C118P was dissolved in saline to different concentrations for intravenous administration. After fasting overnight with free access to water, the dogs were administered a single intravenous dose of 1 or 3 mg/kg C118P. After a one-week wash-out period, the group of 1 mg/kg were administered another single intravenous dose of 6 mg/kg C118P. Blood samples (approximately 1 mL) were collected in EDTA-coated tubes at times of 0, 2, 5, 10, 20, 40 min, 1, 2, 4, 8, 12 and 24 h. Plasma was prepared by centrifugation at 8000 rpm for 5 min, and the plasma samples were then prepared and determined by the method described above.
The area under the plasma-concentration-versus-time curve from 0 to infinite (AUC0-inf), the elimination half-life (t1/2), the systemic plasma clearance (CL) and the volume of distribution (V) were calculated by non-compartmental analysis with WinNonlin software v6.3 (Pharsight Corporation, St. Louis, MO 63144, USA) from the plasma concentration data of C118P and C118, respectively. The instantaneous concentrations after intravenous to rats (C30s) or dogs (C2min) were obtained directly from the observed data.

[5] = in vivo, dogs, i.v. C118P 1 mg/kg, n = 6
[6] = in vivo, dogs, i.v. C118P 3 mg/kg, n = 6
[7] = in vivo, dogs, i.v. C118P 6 mg/kg, n = 6
[8] = dogs, i.v. C118P 1 mg/kg, n = 6
[9] = dogs, i.v. C118P 3 mg/kg, n = 6
[10] = dogs, i.v. C118P 6 mg/kg, n = 6

Structure (SMILES): COc1cc(OC)cc(-c2nc[nH]c2-c2ccc(OC)c(OP(=O)([O-])[O-])c2)c1.[Na+].[Na+] [C118P]
- fraction unbound at 1 h, 400 ng/mL ([1]; C118P 400 ng/mL): 0.032 ± 0.001
- fraction unbound at 1 h, 4000 ng/mL ([1]; C118P 4000 ng/mL): 0.029 ± 0.001
- fraction unbound at 1 h, 40000 ng/mL ([1]; C118P 40,000 ng/mL): 0.024 ± 0.001
- fraction unbound at 1 h, 400000 ng/mL ([1]; C118P 400,000 ng/mL): 0.122 ± 0.006
- blood plasma ratio at 30 min (Whole blood/plasma ratio): 0.8
- stability in liver microsomes ([2]; rat liver microsomes (Figure S1)): quite stable
- stability in liver microsomes ([3]; monkey liver microsomes (Figure S1)): quite stable
- AUC(0-inf) [4, 5]: 1700 ± 346 ng·h/mL
- half-life [4, 5]: 13.2 ± 5.4 min
- clearance ([4]; in vivo, dogs, i.v. C118P 1 mg/kg, n = 6, read-out: CL (converted)): 10.2 mL/min/kg
- AUC(0-inf) [4, 6]: 5300 ± 1700 ng·h/mL
- half-life [4, 6]: 35.4 ± 9.6 min
- clearance ([4]; in vivo, dogs, i.v. C118P 3 mg/kg, n = 6, read-out: CL (converted)): 10.1 mL/min/kg
- AUC(0-inf) [4, 7]: 8530 ± 1550 ng·h/mL
- half-life [4, 7]: 23.4 ± 7.2 min
- clearance ([4]; in vivo, dogs, i.v. C118P 6 mg/kg, n = 6, read-out: CL (converted)): 12.1 mL/min/kg
- concentration at 2 min [4, 5]: 12300 ng/mL
- concentration at 2 min [4, 6]: 34700 ng/mL
- concentration at 2 min [4, 7]: 64200 ng/mL
- V [4, 8]: 0.1817 ± 0.0513 L/kg
- V [4, 9]: 0.5092 ± 0.162 L/kg
- V [4, 10]: 0.3985 ± 0.0871 L/kg

- fraction unbound at 1 h, 200 ng/mL ([1]; pooled plasma, C118 200 ng/mL): 0.077 ± 0.008
- fraction unbound at 1 h, 2000 ng/mL ([1]; pooled plasma, C118 2000 ng/mL): 0.065 ± 0.003
- fraction unbound at 1 h, 20000 ng/mL ([1]; pooled plasma, C118 20,000 ng/mL): 0.055 ± 0.001
- blood plasma ratio at 30 min (Whole blood/plasma ratio; whole blood and plasma): 1.05
- half-life ([2]; Sprague-Dawley, rat liver microsomes, 1.0 mg protein/mL, C118 disappearance): 10.3 min
- CLint, in vitro ([2]; rat liver microsomes): 67.0 μL·min^−1·mg^−1 Protein
- CLint ([2]; rat, scaled from CLint, in vitro): 115.3 mL/min/kg
- Extrapolated CLH ([2]; rat, well-stirred liver model): 43.6 mL/min/kg
- CLint, in vitro ([3]; monkey liver microsomes): 318.6 μL·min^−1·mg^−1 Protein
- half-life ([3]; monkey liver microsomes, 1.0 mg protein/mL, C118 disappearance): 2.2 min
- CLint ([3]; monkey, scaled from CLint, in vitro): 252.8 mL/min/kg
- Extrapolated CLH ([3]; monkey, well-stirred liver model): 37.5 mL/min/kg
- concentration at 2 min ([4]; intravenous, dogs, i.v. C118P 1 mg/kg, n = 6): 252 ± 70.5 ng/mL
- concentration at 2 min ([4]; intravenous, dogs, i.v. C118P 3 mg/kg, n = 6): 861 ± 259 ng/mL
- concentration at 2 min ([4]; intravenous, dogs, i.v. C118P 6 mg/kg, n = 6): 1700 ± 509 ng/mL
- AUC(0-inf) [4, 8]: 214 ± 79 ng·h/mL
- half-life [4, 8]: 29.4 ± 10.8 min
- AUC(0-inf) [4, 9]: 910 ± 295 ng·h/mL
- half-life [4, 9]: 63 ± 16.2 min
- AUC(0-inf) [4, 10]: 1830 ± 320 ng·h/mL
- half-life [4, 10]: 50.4 ± 15 min
- clearance ([4]; in vivo, compared with extrapolated CLH, read-out: Observed CL): 54 mL/min/kg
Structure (SMILES): COc1cc(OC)cc(-c2nc[nH]c2-c2ccc(OC)c(O)c2)c1 [C118]
